Results on three compounds are retold here after patent US6620423B2, “Use for pain management” (AstraZeneca AB, priority 1998, dated 2003).

Counter-ions that a name gives are not always drawn.

Experiment [1] deals with patients with myofascial pain syndrome (MPS). The note with it: bupivacaine 0.25%, lignocaine 1%, local injection, 107 patients; cited from earlier work.
Experiment [2] has as its system patients with orofacial muscle (myofascial) pain, masseter muscle tender points. As to the kind of experiment: VAS pain at rest (jaw at rest) after intramuscular tender point injection. The experiment is classed as in vivo, human. The method, then:
(§1) Ropivacaine hydrochloride 7.5 mg/ml solution for injection was used (Naropin®, Astra AB, Sweden). Ropivacaine was administered as a single dose intra-muscular tender point (TP) injection. Injection by means of one needle insertion per tender point was preceded by aspiration before infiltrating the study drug over the entire tender area. A standard disposable syringe with a 0.4 mm diameter needle was used. Injection rate was about 1 ml/30 sec. Injections were made at one occassion at a visit to the clinic. Follow-up data were obtained at a study end visit to the clinic 1 week after the injection. Ten patients (5 men and 5 women) whose age varied from 19 years to 69 years (mean 42.9 years of age) were included in this test. The duration of complaints ranged from 1 month up to 10 years (mean 26.5 months). All patients were subjected to unilateral injections of ropivacaine into tender points of the masseter muscle. Three patients received 1 ml, 5 patients received 2 ml, 1 patient received 3 ml and 1 patient received 4 ml of the study drug. (ii) Pain at rest The non-functional pain (jaw at rest) was also assessed by the patient on the VAS scale. This parameter was rated before the rating of pain on maximal mouth opening.

The test system is the same in experiment [3]. Put plainly: VAS pain at maximal mouth opening after intramuscular tender point injection. It counts as in vivo, human. The method, then:
Ropivacaine hydrochloride 7.5 mg/ml solution for injection was used (Naropin®, Astra AB, Sweden). Ropivacaine was administered as a single dose intra-muscular tender point (TP) injection. Injection by means of one needle insertion per tender point was preceded by aspiration before infiltrating the study drug over the entire tender area. A standard disposable syringe with a 0.4 mm diameter needle was used. Injection rate was about 1 ml/30 sec. Injections were made at one occassion at a visit to the clinic. Follow-up data were obtained at a study end visit to the clinic 1 week after the injection. Ten patients (5 men and 5 women) whose age varied from 19 years to 69 years (mean 42.9 years of age) were included in this test. The duration of complaints ranged from 1 month up to 10 years (mean 26.5 months). All patients were subjected to unilateral injections of ropivacaine into tender points of the masseter muscle. Three patients received 1 ml, 5 patients received 2 ml, 1 patient received 3 ml and 1 patient received 4 ml of the study drug. (i) Pain on maximal mouth opening The patient rated their pain on a 100 mm visual analogue scale (VAS). On the VAS, 0 represents “no pain” and 100 represents “worst pain imaginable”. The primary efficacy variable was VAS pain score at maximal mouth opening. The patient was asked to open the mouth as much as possible and then they rated the experienced pain.

The test system is the same in experiment [4]. Put plainly: Frequency of pain episodes / freedom from muscular pain at follow-up. It counts as in vivo, human. The method, then:
as §1, with “the injection. A case history information including the duration of the present orofacial muscle pain was collected. A clinical examination of the orofacial region including digital palpation of the temporomandibular joints and masticatory muscles. Ten patients” for “the injection. Ten patients”, “study drug.” for “study drug. (ii) Pain at rest The non-functional pain (jaw at rest) was also assessed by the patient on the VAS scale. This parameter was rated before the rating of pain on maximal mouth opening.”

Take `CCCCN1CCCCC1C(=O)Nc1c(C)cccc1C` (stereo not shown) [bupivacaine]: the “Effect on pain compared between bupivacaine, lignocaine and saline” value in experiment [1] was “No significant difference”.

In the case of `CCN(CC)CC(=O)Nc1c(C)cccc1C` [lignocaine], the “Effect on pain compared between bupivacaine, lignocaine and saline” value in experiment [1] was “No significant difference”.

Take `CCCN1CCCC[C@H]1C(=O)Nc1c(C)cccc1C` [ropivacaine, (S)-(−)-i-propyl-2′,6′-pipecoloxylidide hydrochloride]: the “Pain at rest, 100 mm VAS, Follow-up, Max” value in experiment [2] (10 patients, 7.5 mg/ml single i.m. injection, follow-up 1 week, baseline max 89) came to 16 mm. In addition, the “Pain at rest, 100 mm VAS, Follow-up, Mean” value in experiment [2] (10 patients, 7.5 mg/ml single i.m. injection, follow-up 1 week, baseline mean 33.3) is reported as 3.7 mm. For the same compound, in experiment [2] (10 patients, 7.5 mg/ml single i.m. injection, follow-up 1 week, baseline median 19.5), the “Pain at rest, 100 mm VAS, Follow-up, Median” value came out at 3.5 mm. In addition, the “Pain at rest, 100 mm VAS, Follow-up, Min” value in experiment [2] (10 patients, 7.5 mg/ml single i.m. injection, follow-up 1 week, baseline min 3) is 0 mm. Further, the “Pain at rest, change as the result of the treatment” value in experiment [2] (baseline vs follow-up, result in words) is listed as “decreased significantly”. Further, in experiment [3] (10 patients, 7.5 mg/ml single i.m. injection, follow-up 1 week, baseline max 95), the “Pain at maximal jaw opening, 100 mm VAS, Follow-up, Max” value is reported as 75 mm. Moreover, the “Pain at maximal jaw opening, 100 mm VAS, Follow-up, Mean” value in experiment [3] (10 patients, 7.5 mg/ml single i.m. injection, follow-up 1 week, baseline mean 59.3, S.D. 32.34) worked out at 27.3 mm. Besides, in experiment [3] (10 patients, 7.5 mg/ml single i.m. injection, follow-up 1 week, baseline min 8), the “Pain at maximal jaw opening, 100 mm VAS, Follow-up, Min” value turned out to be 0 mm. For the same compound, the “Pain at maximal jaw opening, 100 mm VAS, Follow-up, Median” value in experiment [3] (10 patients, 7.5 mg/ml single i.m. tender point injection (1-4 ml), follow-up 1 week, baseline median 59.5) is 6 mm. In addition, the “VAS rated pain at maximal mouth opening, change as a result of the treatment” value in experiment [3] (baseline vs follow-up 1 week, result in words) is reported as “dramatic reduction”. Further, the “Patients who became free or almost free of their muscular pain” value in experiment [4] (FIG. 1, 10 patients treated) was 6 out of the 10. Besides, in experiment [4] (of 10 patients), the “Patients with pain at one occasion during the week prior to follow-up” value was 1 patient and the “Patients with pain several times a week or every day at follow-up” value is 3 patients. The “Patients with not a single episode with pain during the week prior to follow-up” value in experiment [4] (of 10 patients, at baseline 2 had pain every day, 8 several times per week) was 6 patients.
